Drawing on US20250368649A1, “TETRAHYDROPYRIDOPYRIMIDINE PAN-KRAS INHIBITORS” (Mirati Therapeutics, Inc., priority 2022, published 2025), this text covers IC50 and inhibition for three compounds.

One experiment addresses KRas G12V (Homo sapiens, UniProt P01116, G12V). The experiment can be described thus: biochemical. The following applies: Binding to KRas (IC50 nM) G12V, TR-FRET displacement, KRas G12V. On the technique in general: In TR-FRET formats the signal depends on donor and acceptor labels being close together.
The target of another experiment is KRas WT (Homo sapiens, UniProt P01116). Nature of the experiment: KRas binding assay (TR-FRET displacement), KRas WT. As to conditions: single point, 10 nM compound.
The test system of the next experiment is H460 cells. Nature of the experiment: Inhibition of KRas-mediated phosphorylation of ERK (Cisbio HTRF pERK), H460 cells. The class given is cell-based. As to conditions: Homo sapiens; for inhibition at 0.1 µM: NCI-H460, single point at 100 nM, 3 hrs compound incubation.
In the next experiment the target is KRas Q61H (Homo sapiens, UniProt P01116, Q61H). Nature of the experiment: KRas binding assay (TR-FRET displacement), KRas Q61H. As to conditions: single point, 10 nM compound.
The target of the next experiment is KRas G12R (Homo sapiens, UniProt P01116, G12R). Nature of the experiment: biochemical. The following applies: Binding to KRas (IC50 nM) G12R, TR-FRET displacement, KRas G12R.
The next experiment deals with ASPC1 cells. Nature of the experiment: Inhibition of KRas-mediated phosphorylation of ERK (Cisbio HTRF pERK), ASPC1 cells. Format: cell-based. The following applies: Homo sapiens, AsPC-1 cells; for IC50: ASPC1, 3 h, 3 hr compound incubation, Cisbio pERK HTRF.
For a further experiment, the target named is KRas G12C (Homo sapiens, UniProt P01116, G12C). Format: binding. The following applies: single point, 10 nM compound, read-out: Binding to KRas (% inhibition at 10 nM) G12C.
Another experiment concerns the target KRas G12S (Homo sapiens, UniProt P01116, G12S). The class given is binding. The following applies: single point, 10 nM compound, read-out: Binding to KRas (% inhibition at 10 nM) G12S.
For another experiment, the system named is H358 cells. Nature of the experiment: Inhibition of KRas-mediated phosphorylation of ERK (Cisbio HTRF pERK), H358 cells. As to conditions: Homo sapiens; for inhibition at 0.1 µM: NCI-H358, single point at 100 nM, 3 hrs compound incubation. Format: cell-based.
For the next experiment, the system named is MKN1 cells. The experiment can be described thus: Inhibition of KRas-mediated phosphorylation of ERK (Cisbio HTRF pERK), MKN1 cells. Format: cell-based. The following applies: Homo sapiens, MKN-1, 3 hour compound incubation, Cisbio pERK HTRF. Summed up: (§1)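 Cells were seeded on day 1 at 6,000 per well in RPMI containing 10% FBS before compound treatment and phospho-ERK detection.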

The test system of the next experiment is H727 cells. Nature of the experiment: Inhibition of KRas-mediated phosphorylation of ERK (Cisbio HTRF pERK), H727 cells. The class given is cell-based. As to conditions: Homo sapiens; for IC50: NCI-H727, 3 h, 3 hr compound incubation, Cisbio pERK HTRF.
The test system of a further experiment is PSN1 cells. The experiment can be described thus: Inhibition of KRas-mediated phosphorylation of ERK (Cisbio HTRF pERK), PSN1 cells. Format: cell-based. The following applies: Homo sapiens, PSN1, 3 h, 3 hour compound incubation, Cisbio pERK HTRF. The method in brief: as §1
A further experiment addresses KRas G12A (Homo sapiens, UniProt P01116, G12A). The class given is binding. The following applies: single point, 10 nM compound, read-out: Binding to KRas (% inhibition at 10 nM) G12A.
A further experiment concerns HCT116 cells. Nature of the experiment: Inhibition of KRas-mediated phosphorylation of ERK (Cisbio HTRF pERK), HCT116 cells. The class given is cell-based. The following applies: Homo sapiens; for inhibition at 0.1 µM: HCT-116, single point at 100 nM, 3 hrs compound incubation.
Another experiment concerns the target KRas G12D (Homo sapiens, UniProt P01116, G12D). Nature of the experiment: biochemical. The following applies: Binding to KRas (IC50 nM) G12D, TR-FRET displacement, KRas G12D.
In the next experiment the target is KRas G13D (Homo sapiens, UniProt P01116, G13D). Format: binding. As to conditions: single point, 10 nM compound, read-out: Binding to KRas (% inhibition at 10 nM) G13D.
The next experiment relates to A549 cells. The experiment can be described thus: Inhibition of KRas-mediated phosphorylation of ERK (Cisbio HTRF pERK), A549 cells. Format: cell-based. The following applies: Homo sapiens; for inhibition at 0.1 µM: single point at 100 nM, 3 hrs compound incubation.

Sequence of KRas G12A (P01116 1-169 isoform P01116-2 G12A): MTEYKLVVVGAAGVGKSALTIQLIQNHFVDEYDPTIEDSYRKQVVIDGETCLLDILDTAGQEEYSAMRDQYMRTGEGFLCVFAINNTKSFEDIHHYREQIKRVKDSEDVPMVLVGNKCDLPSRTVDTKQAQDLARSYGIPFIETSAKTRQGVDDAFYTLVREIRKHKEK
Sequence of KRas Q61H (P01116 1-169 isoform P01116-2 Q61H): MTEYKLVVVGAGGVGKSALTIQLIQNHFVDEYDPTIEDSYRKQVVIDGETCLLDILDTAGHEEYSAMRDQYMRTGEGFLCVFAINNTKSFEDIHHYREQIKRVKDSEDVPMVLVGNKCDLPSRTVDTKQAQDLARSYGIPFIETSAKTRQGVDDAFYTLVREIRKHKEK
Sequence of KRas G12D (P01116 1-169 isoform P01116-2 G12D): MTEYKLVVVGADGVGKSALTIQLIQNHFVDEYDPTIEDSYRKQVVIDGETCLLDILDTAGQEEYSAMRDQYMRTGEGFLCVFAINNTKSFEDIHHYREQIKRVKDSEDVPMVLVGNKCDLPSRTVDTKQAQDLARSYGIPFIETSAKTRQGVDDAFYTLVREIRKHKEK
Sequence of KRas WT (P01116 1-169 isoform P01116-2): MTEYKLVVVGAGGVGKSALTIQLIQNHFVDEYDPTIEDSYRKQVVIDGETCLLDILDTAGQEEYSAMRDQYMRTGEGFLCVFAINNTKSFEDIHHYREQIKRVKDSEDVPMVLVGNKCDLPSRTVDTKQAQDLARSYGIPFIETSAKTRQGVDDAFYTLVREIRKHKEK
Sequence of KRas G12R (P01116 1-169 isoform P01116-2 G12R): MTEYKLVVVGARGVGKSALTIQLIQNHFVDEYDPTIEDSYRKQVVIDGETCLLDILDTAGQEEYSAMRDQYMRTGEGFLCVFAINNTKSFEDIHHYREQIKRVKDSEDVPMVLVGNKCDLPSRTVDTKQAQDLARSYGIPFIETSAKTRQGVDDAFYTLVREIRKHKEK
Sequence of KRas G13D (P01116 1-169 isoform P01116-2 G13D): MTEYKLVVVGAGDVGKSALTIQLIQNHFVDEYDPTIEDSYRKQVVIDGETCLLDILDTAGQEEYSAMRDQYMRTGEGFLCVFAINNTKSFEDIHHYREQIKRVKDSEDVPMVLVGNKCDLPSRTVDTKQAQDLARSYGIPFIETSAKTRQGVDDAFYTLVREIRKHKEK
Sequence of KRas G12V (P01116 1-169 isoform P01116-2 G12V): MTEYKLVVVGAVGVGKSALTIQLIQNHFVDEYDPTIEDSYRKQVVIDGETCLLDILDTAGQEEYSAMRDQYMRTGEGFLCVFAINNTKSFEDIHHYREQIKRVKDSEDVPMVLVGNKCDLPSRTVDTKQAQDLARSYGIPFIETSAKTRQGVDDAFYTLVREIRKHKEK
Sequence of KRas G12S (P01116 1-169 isoform P01116-2 G12S): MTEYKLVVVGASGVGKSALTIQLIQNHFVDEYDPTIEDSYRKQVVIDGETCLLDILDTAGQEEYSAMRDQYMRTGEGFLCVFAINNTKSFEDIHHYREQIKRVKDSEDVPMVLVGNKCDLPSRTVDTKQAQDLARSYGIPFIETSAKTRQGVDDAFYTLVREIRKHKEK
Sequence of KRas G12C (P01116 1-169 isoform P01116-2 G12C): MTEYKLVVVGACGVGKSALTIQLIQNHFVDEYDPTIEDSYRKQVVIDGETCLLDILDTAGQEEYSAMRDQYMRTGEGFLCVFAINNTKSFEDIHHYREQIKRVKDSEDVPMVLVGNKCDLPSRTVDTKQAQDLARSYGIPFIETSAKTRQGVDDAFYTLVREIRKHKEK

On to `CCc1c(F)ccc2cc(O)cc(N3CCc4c(nc(OC[C@@]56CCCN5C[C@H](F)C6)nc4N4CCCn5nc(C(=O)N(C)C)c(C(C)C)c5C4)C3)c12` [Example 295, 5-(7-(8-ethyl-7-fluoro-3-hydroxynaphthalen-1-yl)-2-(((2R,7aS)-2-fluorohexahydro-1H-pyrrolizin-7a-yl)methoxy)-5,6,7,8-tetrahydropyrido[3,4-d]pyrimidin-4-yl)-3-isopropyl-N,N-dimethyl-5,6,7,8-tetrahydro-4H-pyrazolo[1,5-a][1,4]diazepine-2-carboxamide], for which the IC50 (commonly the midpoint of a concentration-inhibition curve) was below 2 nM on KRas G12V; below 2 nM at KRas G12R; 20 nM with ASPC1 cells; 3.5 nM in the experiment on MKN1 cells; 23 nM with H727 cells; above 10000 nM with PSN1 cells. In addition, the IC50 at KRas G12D is below 2 nM. Moreover, the inhibition (as a rule, the relative decrease from the control value, in per cent) at 0.01 µM at KRas WT amounted to 99%; at KRas Q61H, 98%; at KRas G12C, 99%; on KRas G12S, 99%; at KRas G12A, 99%; on KRas G13D, 98%. The inhibition at 0.1 µM with H460 cells was found to be 84%; in the experiment on H358 cells, 97%; with HCT116 cells, 63%; in the experiment on A549 cells, 60%.
With `CCc1c(F)ccc2cc(O)cc(N3CCc4c(nc(OC[C@@]56CCCN5C[C@H](F)C6)nc4N4CCCn5nc(N)c(Br)c5C4)C3)c12` [Example 296, 4-(4-(2-amino-3-bromo-7,8-dihydro-4H-pyrazolo[1,5-a][1,4]diazepin-5(6H)-yl)-2-(((2R,7aS)-2-fluorohexahydro-1H-pyrrolizin-7a-yl)methoxy)-5,6-dihydropyrido[3,4-d]pyrimidin-7(8H)-yl)-5-ethyl-6-fluoronaphthalen-2-ol], the IC50 at KRas G12V was below 2 nM; with H460 cells (NCI-H460, 3 h, 3 hr compound incubation, Cisbio pERK HTRF) it was 38 nM; at KRas G12R, below 2 nM; in the experiment on ASPC1 cells it was 4 nM; with H358 cells (NCI-H358, 3 h, 3 hr compound incubation, Cisbio pERK HTRF) it was 5 nM; with MKN1 cells it was 8.9 nM. Moreover, the IC50 was 20 nM in the experiment on H727 cells; 6580 nM with PSN1 cells; 118 nM with HCT116 cells (HCT-116, 3 h, 3 hr compound incubation, Cisbio pERK HTRF); below 2 nM at KRas G12D; 12 nM in the experiment on A549 cells (A549, 3 h, 3 hr compound incubation, Cisbio pERK HTRF). In addition, the inhibition at 0.01 µM on KRas WT stood at 93%; on KRas Q61H, 93%; at KRas G12C, 98%; at KRas G12S, 98%; on KRas G12A, 94%; on KRas G13D, 93%. The inhibition at 0.1 µM in the experiment with H460 cells was determined as 78%; with ASPC1 cells (ASPC1, single point at 100 nM, 3 hrs compound incubation), 94%; in the experiment on H358 cells, 98%; in the experiment with H727 cells (NCI-H727, single point at 100 nM, 3 hrs compound incubation), 67%; with HCT116 cells, 51%; in the experiment on A549 cells, 86%.
For the compound `CCNC(=O)c1cc2n(n1)CCCCN(c1nc(OC[C@@]34CCCN3C[C@H](F)C4)nc3c1CCN(c1cc(O)cc4ccc(F)c(CC)c14)C3)C2` [Example 301, N-ethyl-5-(7-(8-ethyl-7-fluoro-3-hydroxynaphthalen-1-yl)-2-(((2R,7aS)-2-fluorotetrahydro-1H-pyrrolizin-7a(5H)-yl)methoxy)-5,6,7,8-tetrahydropyrido[3,4-d]pyrimidin-4-yl)-4,5,6,7,8,9-hexahydropyrazolo[1,5-a][1,4]diazocine-2-carboxamide], the IC50 was below 2 nM on KRas G12V; below 2 nM at KRas G12R; 12 nM in the experiment on ASPC1 cells; 12.9 nM with MKN1 cells; 6 nM in the experiment with H727 cells; 655 nM in the experiment with PSN1 cells. The IC50 on KRas G12D was below 2 nM. Also, the inhibition at 0.01 µM stood at 89% on KRas WT; 94% at KRas Q61H; 99% on KRas G12C; 97% at KRas G12S; 89% at KRas G12A; 91% at KRas G13D. Also, the inhibition at 0.1 µM with H460 cells was 54%; in the experiment with H358 cells, 102%; with HCT116 cells, 34%; in the experiment on A549 cells, 85%.
